In the assay the target is T1, human cdk2/cyclin A (Homo sapiens, UniProt P24941).
T1 construct: made in house; host or cells: Sf9 (baculovirus)
Description: Assay for inhibition of CDK2 (Scintillation Proximity Assay). In kind it is biochemical. The note with it: read-out: cdk2SPA IC50. Here is the method: Using the following reagents, supplies, and method, the ability of compounds of the invention to assay for modulation of the in vitro kinase activity of human cdk2/cyclin A in a Scintillation Proximity Assay (SPA).
Activated cdk2/cyclin A enzyme complex is purified from Sf9 cells and stored at −80° C. in 200 μL aliquots. Human cdk2/cyclin A protein is expressed, activated, and purified from baculovirus infected sf9 cells as described previously. (J. Mol. Biol., 230:1317-1319 (1993)).
The substrate is a biotinylated peptide substrate (Debtide), which is a peptide biotin-X-[…] dissolved in dH2O at a concentration of 5 mg/mL and stored at −80° C. in 100 μL aliquots.
The Peptide/ATP mixture is prepared by mixing 9.979 mL dH2O with 0.00125 mL of cold 10 mM ATP, 0.010 mL of 5 mg/mL Debtide, and 0.010 mL of 10 μCi/mL γ^33P ATP.
A 2.5× kinase buffer is prepared by mixing 8.85 mL of dH2O with 0.625 mL of 1M Tris pH 7.4, 0.25 mL of 1M MgCl2, 0.25 mL of 10% NP40, and 0.025 mL of 1M DTT. Ten milliliters of kinase buffer mix is sufficient for about 4.5 assay plates.
Prepare solutions of inhibitors at 5× the desired final concentration in 5% DMSO. Add 10 μL to each well. For negative controls, add 10 μL 5% DMSO.
Dilute 5 μL of cdk2/cyclin A solution into 2.1 mL 2× kinase buffer (per plate) and add 20 μL enzyme per well. This can be added using a hand pipette or by using the Titertek Multidrop. […] For each freeze/thaw cycle, double the amount of enzyme used in the assay. Also, the enzyme should be thawed quickly (e.g., in the palm of one's hand) and be kept on ice prior to use in the assay. Add 10 μL of 0.5 M EDTA to the negative control wells.
To start kinase reaction, add 20 μL of peptide/ATP mixture using either a hand pipette or the Titertek Multidrop. Let sit on benchtop behind shield for one hour. No shaking is necessary and is not recommended when using Flexiplates (plates are not easy to add/remove from shaker).
Add 200 μL stop solution per well using either the Titertek Multidrop or hand pipette. Let stand at least 10 minutes. Spin plate approximately 2300 rpm for 3-5 minutes. Count plate on Trilux reader.
Background: In a scintillation proximity assay essentially only radioactivity close to the scintillant gives light.

pIC50: −log10 of the molar value. Structures can show the parent of a compound that is named as a salt. Some results are limits rather than exact numbers.

In general, pIC50 refers to −log10 of the IC50, conventionally taken in molar units. For `Cc1cc(C(=O)NCCN2CCOCC2)[nH]c1C=C1C(=O)Nc2nccc(Nc3ccc(F)c(Cl)c3)c21` [Formula 3, 5-[4-(3-CHLORO-4-FLUORO-PHENYLAMINO)-2-OXO-1,2-DIHYDRO-PYRROLO[2,3-B]PYRIDIN-3-YLIDENEMETHYL]-4-METHYL-1H-PYRROLE-2-CARBOXYLIC ACID (2-MORPHOLIN-4-YL-ETHYL)-AMIDE], the pIC50 is below 5.00.
On to `Cc1cc(C(=O)NCCN2CCOCC2)[nH]c1C=C1C(=O)Nc2ncnc(Nc3ccc(F)c(Cl)c3)c21` [Formula 4, 5-[4-(3-CHLORO-4-FLUORO-PHENYLAMINO)-6-OXO-6,7-DIHYDRO-PYRROLO[2,3-D]PYRIMIDIN-5-YLIDENEMETHYL]-4-METHYL-1H-PYRROLE-2-CARBOXYLIC ACID (2-MORPHOLIN-4-YL-ETHYL)-AMIDE HYDROCHLORIDE], for which the negative logarithm of the IC50 (pIC50) was below 5.00.
Under `Cc1nc[nH]c1C=C1C(=O)Nc2ncnc(Nc3ccc(F)c(Cl)c3)c21` [Formula 8] stands 5.58; under `Cc1nc[nH]c1C=C1C(=O)Nc2ncnc(N3CCN(C)CC3)c21` [Formula 11], 8.00; under `Cc1nc[nH]c1C=C1C(=O)Nc2ncnc(N3CCOCC3)c21` [Formula 14], 7.40.
